# Results: patent US20260166021A1, “POLYMORPHIC FORMS OF A SOLUBLE EPOXIDE HYDROLASE INHIBITOR AND FORMULATIONS THEREOF” (EicOsis, LLC, priority 2022, published 2026)
# How the values were obtained:
# [1] = Differential scanning calorimetry (DSC): heat of fusion, thermal events; assay type: physicochemical; conditions: for thermodynamic stability (from heat of fusion) / Heat of fusion: DSC; for thermodynamic stability (from heat of fusion): TABLE 10; for Heat of fusion: scaled-up polymorphs, measured during conversion from Form C
# Description: Differential scanning calorimetry analyses were performed on each sample “as is.” Unless otherwise specified, samples were weighed in an aluminum pan, covered with a pierced lid, and then crimped and analyzed from 30-300° C. ramped at 10° C./min.
# The DSC data were used to determine the heat of fusion for Forms A, B, D, and F, based on their heats of fusion as measured during conversion from Form C.
# [2] = Thermal gravimetric analysis (TGA); assay type: physicochemical
# Description: Thermal gravimetric analyses were performed on each sample “as is.” Unless otherwise noted, samples were weighed in an alumina crucible and analyzed from 30-350° C. at 10° C./min.
# Form C weight loss at 39° C.-50° C. likely reflected methanol loss.
# [3] = Competitive slurry experiments (solvent-mediated polymorph transformation, XRD); assay type: physicochemical; conditions: room temperature, 1 and 7 days
# Description: Polymorph stability and interconversions were analyzed with competitive slurry experiments. The competitive slurry (solvent-mediated transformation) experiments were performed on Forms A, B, D, E, F, G, and I generated through scaled-up crystallization (summarized in TABLE 11). […] The suspensions were aliquoted at one day and seven days and filtered to isolate the solids. Remaining solid was analyzed by XRD without drying.
# In FIG. 66, the second spectrum from the top corresponds to Form E. These XRD data confirmed that Patterns C, K, and D were afforded in these solvents.
# In order to further confirm the rank of stability order of the selected forms and extend the temperature range of stability relationship up to 70° C. covering potential API process conditions, binary form slurries were conducted with starting mixtures of (1) Forms A and D, and (2) Forms D and E. The resultant polymorphs were characterized with XRD after 1 and 7 days, the results of which analyses are shown in FIGURE S 67-68 and summarized in TABLE 13. Pattern D stood out from both binary mixture slurries of A & D and of D & E after seven-day stirring at the elevated temperature.
# Additional single form slurry experiments were conducted on Forms A, D, and E in either water or heptane at room temperature. […] In agreement with prior competitive slurry experiments, Form D was stable at room temperature in n-heptane. Pattern E was obtained from slurries starting with Forms A and E in n-heptane. As expected, Form C was formed from the Pattern E slurry in water.
# [4] = Thermal stress studies at 60° C. (XRD, HPLC); assay type: physicochemical; conditions: for Day 1 % AUC / Day 7 % AUC / Initial % AUC: HPLC; for Initial % AUC: before thermal stress
# Description: Briefly, 20 mg of solid Form A, B, C, D, E, F, G, and I were weighed into 7 mL glass vials. The vials were covered with tissue and stored in ovens set to 60° C. and ambient pressure. Following 1 and 7 days incubation, solid was collected for XRD analysis.
# As shown in these figures, Forms B and C converted to Forms D and A, respectively, while the other forms remained unchanged.
# The starting materials, intermediates (1 day of thermal stress), and products (7 days of thermal stress) were analyzed by H PLC. Representative chromatograms from the Form D thermal stress analyses are shown in FIGS. 81-83 (starting material, 1 day, and 7 day samples, respectively).
# [5] = Crystallization of Formula (I) in single- and binary-solvent systems (resultant XRD pattern)
# Description: Formula (I) crystallization was first analyzed in single-solvent systems lacking antisolvent. […] Fast cooling was performed by placing the vials in a 4° C. refrigerator for 24 hours, while slow cooling was performed by decreasing the temperatures of the vials by 20° C./h with stirring. The resulting solids were isolated by centrifuge filtration through […] centrifuge filters. When solids were not produced, the solution was evaporated under nitrogen as an additional attempt to obtain solid. All obtained solids were analyzed by XRD to determine the solid pattern.
# Formula (I) recrystallization was then tested with binary-solvent systems containing water, n-heptane, or c-hexane as antisolvent. […] Anti solvents were added drop-wise at the same temperature until precipitate was observed or the vial volume was reached (˜7 mL). The vials were quickly cooled to 4° C. or slowly cooled by 20° C./hour as in the single-solvent recrystallizations. The resulting solids were isolated by centrifuge filtration. The samples without precipitation were evaporated to dryness under a gentle stream of nitrogen gas as an additional attempt to obtain solid. All obtained solids were analyzed by XRD to determine the solid form. […]
smiles,measurement,setting,value
CC[C@H](C)C(=O)N1CCC(NC(=O)Nc2ccc(OC(F)(F)F)c(F)c2)CC1 [C],"DSC Thermal Events, Endo: dehydration of bound water of pattern C",[1],73° C.: dehydration of bound water of
same,"DSC Thermal Events, Endo: melting of pattern A",[1],109 °C melting of pattern A
same,"DSC Thermal Events, Endo: melting of pattern F",[1],147 °C melting of pattern F
same,"DSC Thermal Events, Exo: crystallization of pattern F",[1],114 °C crystallization of pattern F
same,TGA: wt change,[2]; at range 39° C.-50° C.,1.4% wt change at
CC[C@H](C)C(=O)N1CCC(NC(=O)Nc2ccc(OC(F)(F)F)c(F)c2)CC1 [E],"DSC Thermal Events, Endo: dehydration of bound water of pattern E",[1],121 °C dehydration of bound water of
same,"DSC Thermal Events, Endo: melting of pattern D",[1],142 °C melting of pattern D
same,"DSC Thermal Events, Endo: melting of pattern F",[1],148 °C melting of pattern F
same,"DSC Thermal Events, Exo: crystallization of pattern D",[1],126 °C crystallization of pattern D
same,"DSC Thermal Events, Exo: crystallization of pattern F",[1],144 °C crystallization of pattern F
same,TGA: wt change,[2]; at range 116° C.-119° C.,4.7% wt change at
"CC[C@H](C)C(=O)N1CCC(NC(=O)Nc2ccc(OC(F)(F)F)c(F)c2)CC1 [Form A, (S)-1-(3-fluoro-4-(trifluoromethoxy)phenyl)-3-(1-(2-methylbutanoyl)piperidin-4-yl)urea]","DSC Thermal Events, Endo: melting of pattern A",[1],113 °C melting of pattern A
same,"DSC Thermal Events, Endo: melting of pattern D",[1],141 °C melting of pattern D (shoulder)
same,"DSC Thermal Events, Endo: melting of pattern F",[1],148 °C meting of patter F
same,"DSC Thermal Events, Exo: crystallization of pattern D",[1],127 °C crystallization of pattern D
same,"DSC Thermal Events, Exo: crystallization of pattern F",[1],117 °C crystallization of pattern
same,thermodynamic stability (from heat of fusion),[1],thermodynamically stable
same,Heat of fusion,[1],29.73
same,single form slurry in n-heptane: resultant polymorph,[3],Pattern E
same,TGA: wt change,[2]; below 150° C.,No wt change below
same,Day 1 % AUC,[4]; 60° C.,100%
same,Day 7 % AUC,[4]; 60° C.,100%
same,Initial % AUC,[4],100%
"CC[C@H](C)C(=O)N1CCC(NC(=O)Nc2ccc(OC(F)(F)F)c(F)c2)CC1 [Form B, (S)-1-(3-fluoro-4-(trifluoromethoxy)phenyl)-3-(1-(2-methylbutanoyl)piperidin-4-yl)urea]","DSC Thermal Events, Endo: melting of pattern B",[1],146 °C melting of pattern B
same,"DSC Thermal Events, Endo: melting of pattern D",[1],141 °C melting of pattern D
same,thermodynamic stability (from heat of fusion),[1],thermodynamically stable
same,Heat of fusion,[1]; listed as B,53.14
same,TGA: wt change,[2]; below 150° C.,No wt change below
same,conversion to Form D,"[4]; 60° C., following one day of incubation",100%
"CC[C@H](C)C(=O)N1CCC(NC(=O)Nc2ccc(OC(F)(F)F)c(F)c2)CC1 [Form E, (S)-1-(3-fluoro-4-(trifluoromethoxy)phenyl)-3-(1-(2-methylbutanoyl)piperidin-4-yl)urea]",single form slurry in n-heptane: resultant polymorph,[3],Pattern E
same,single form slurry in water: resultant polymorph,[3]; water,Form C
"CC[C@H](C)C(=O)N1CCC(NC(=O)Nc2ccc(OC(F)(F)F)c(F)c2)CC1 [Form F, (S)-1-(3-fluoro-4-(trifluoromethoxy)phenyl)-3-(1-(2-methylbutanoyl)piperidin-4-yl)urea]","DSC Thermal Events, Endo: melting of pattern F",[1],150 °C melting of pattern F
same,Heat of fusion,[1]; listed as F,57.06
same,Day 1 % AUC,[4]; 60° C.,100%
same,Day 7 % AUC,[4]; 60° C.,100%
same,Initial % AUC,[4],100%
CC[C@H](C)C(=O)N1CCC(NC(=O)Nc2ccc(OC(F)(F)F)c(F)c2)CC1 [Formula (I) Form C],Formula (I) Product Form,"[5]; Acetone (0.1)/n-Heptane (0.4), 50° C., Slow, ppt/evaporate",B + E
same,Formula (I) Product Form,"[5]; DMSO (0.1)/Water (0.05), 70° C., Slow, ppt/filtered",D + F
same,Formula (I) Product Form,"[5]; EtOH (0.1)/c-Hexane (6), 70° C., Slow, clear/",F + H
same,Formula (I) Product Form,"[5]; IPA (0.1)/c-Hexane (2), 70° C., Fast, ppt/filtered",H + F
same,Formula (I) Product Form,"[5]; NMP (0.1)/c-Hexane (6), 70° C., Slow, clear/evaporate",D + F
CC[C@H](C)C(=O)N1CCC(NC(=O)Nc2ccc(OC(F)(F)F)c(F)c2)CC1 [G],"DSC Thermal Events, Endo: melting of pattern G",[1],143 °C melting of pattern G
same,Day 7 XRD,"[4]; 60° C., ambient pressure",G/L
CC[C@H](C)C(=O)N1CCC(NC(=O)Nc2ccc(OC(F)(F)F)c(F)c2)CC1 [H],"DSC Thermal Events, Endo: dehydration of bound water of pattern C",[1],83° C.: dehydration of bound water of
same,"DSC Thermal Events, Endo: desolvation of pattern H",[1],129 °C desolvation of pattern H
same,"DSC Thermal Events, Endo: melting of pattern A",[1],140 °C melting of pattern A
same,"DSC Thermal Events, Endo: melting of pattern F",[1],148 °C melting of pattern F
same,"DSC Thermal Events, Exo: crystallization of pattern D",[1],133 °C crystallization of pattern D
same,"DSC Thermal Events, Exo: crystallization of pattern F",[1],142 °C crystallization of patter F
same,TGA: wt change,[2]; at 83° C.,No detectable wt
same,TGA: wt change,[2]; at range […] C.-126° C.,7.2% wt change at
CC[C@H](C)C(=O)N1CCC(NC(=O)Nc2ccc(OC(F)(F)F)c(F)c2)CC1 [I],"DSC Thermal Events, Endo: melting of pattern I",[1],144 °C melting of pattern I
CC[C@H](C)C(=O)N1CCC(NC(=O)Nc2ccc(OC(F)(F)F)c(F)c2)CC1 [J],"DSC Thermal Events, Endo: dehydration of bound water/desolvation of pattern J or another unknown pattern",[1],129 °C dehydration of bound
same,"DSC Thermal Events, Endo: melting of pattern B",[1],146 °C melting of pattern B
same,"DSC Thermal Events, Endo: melting of pattern F",[1],149 °C melting of pattern F
same,"DSC Thermal Events, Endo: melting of unknown pattern",[1],140 °C melting of unknown
same,"DSC Thermal Events, Exo: crystallization of unknown pattern",[1],103 °C crystallization of unknown
same,"DSC Thermal Events, Endo: dehydration of bound water/desolvation of pattern J",[1]; major peak with a shoulder,91 °C dehydration of bound
same,TGA: wt change,[2]; at range 75° C.-82° C.,3.7% wt change at
same,TGA: wt change,[2]; at range 116° C.-[…] C.,4.6% wt change at
CC[C@H](C)C(=O)N1CCC(NC(=O)Nc2ccc(OC(F)(F)F)c(F)c2)CC1 [K],"DSC Thermal Events, Endo: dehydration of bound water/desolvation of pattern K",[1],127 °C dehydration of bound water/
same,"DSC Thermal Events, Endo: melting of pattern D",[1],142 °C melting of pattern D
same,"DSC Thermal Events, Endo: melting of pattern F",[1],148 °C melting of pattern F
same,"DSC Thermal Events, Exo: crystallization of pattern D",[1],130 °C crystallization of pattern D
same,TGA: wt change,[2]; at range 120° C.-[…] C.,5.0% wt change at
CC[C@H](C)C(=O)N1CCC(NC(=O)Nc2ccc(OC(F)(F)F)c(F)c2)CC1 [L],"DSC Thermal Events, Endo: melting of pattern D",[1],141 °C melting of pattern D
same,"DSC Thermal Events, Endo: melting of pattern F",[1],148 °C melting of pattern F
same,"DSC Thermal Events, Exo: crystallization of pattern D",[1],138 °C crystallization of pattern D
same,"DSC Thermal Events, Exo: crystallization of pattern F",[1],143 °C crystallization of patter F
same,TGA: wt change,[2]; at range 107° C.-[…] C.,0.4% wt change at
same,TGA: wt change,[2]; at range […] C.-135° C.,0.3% wt change at
CC[C@H](C)C(=O)N1CCC(NC(=O)Nc2ccc(OC(F)(F)F)c(F)c2)CC1 [Lot 3],Endotherm (likely dehydration of bound water),[1]; DSC thermogram of lot,84 °C
same,Endotherm (melting of Form A),[1]; DSC thermogram of lot,"111 °C (melting of Form A),"
same,Exotherm (crystallization of Form B),[1]; DSC thermogram of lot,117 °C (crystallization of
